In US12514806B2, “Cosmetic composition comprising ceramides and sphingolipid” (Croda Korea Ltd, priority 2022, dated 2026):

Tests used:
Assay type in all cases: cell-based
[1] = tested on: aquaporin 3; test: Aquaporin 3 expression in 3D skin model by immunofluorescence; conditions: Experimental Example 4; creams including 0.01% and 0.1% of EOP on 3D skin model; compared to control; concentration-dependent; FIGS. 11-12
Method: (§1) To verify the difference in skin moisturizing according to a ceramide content ratio, each of the creams of Examples 1 to 16 was applied to 3D skin model (EPI-201) manufactured by MatTek, and then the expression of aquaporin 3 and filaggrin was examined.
(§2) Aquaporin 3 expression and filaggrin expression were analyzed by immunofluorescence. Specifically, after the 3D skin model was treated with each of the creams of Examples 1 to 16, the 3D skin model was incubated for 48 hours, and then each cream was washed out with PBS. The 3D skin model was put into a cassette and fixed with 10% formalin, and then made into a paraffin block through dehydration, transparency, penetration, and embedding processes. For deparaffinization, slides were prepared by sectioning to 3 μm, and then paraffin was melted in a dry oven at 60° C. for 30 minutes. […] After DAPI mounting, the slides were observed using a fluorescence microscope, and the results thereof are illustrated in FIGS. 1 to 4. […]
(§3) The moisturizing and barrier factors were analyzed by immunofluorescence in the same manner as in Experimental Example 1, and the results thereof are illustrated in FIGS. 11 and 12. […]
(§4) The moisturizing factors were analyzed by immunofluorescence in the same manner as in Experimental Example 1, and the results thereof are illustrated in FIGS. 15 to 18.

[2] = tested on: filaggrin; test: Filaggrin expression in 3D skin model by immunofluorescence; conditions: Experimental Example 4; creams including 0.01% and 0.1% of EOP on 3D skin model; compared to control; concentration-dependent; FIGS. 11-12
Method: as §1, §2, §3, §4

[3] = tested on: ceramide; test: Amount of ceramide in 3D skin model by immunofluorescence; conditions: Experimental Example 4; creams including 0.01% and 0.1% of EOP on 3D skin model; compared to control; FIGS. 11-12
Method: as §2, with “minutes. Then, the slides were treated with xylene for 15 minutes, 100% ethanol for 5 minutes, 95% ethanol for 5 minutes, and 70% ethanol for 5 minutes, and washed with tap water. Antigen retrieval was carried out by boiling for 10 minutes in citrate buffer in a cooker, followed by cooling in running water. After treatment with 0.5% Triton X-100 for 15 minutes, the slides were washed three times with PBS buffer for 5 minutes.” for “minutes.”
The moisturizing and barrier factors were analyzed by immunofluorescence in the same manner as in Experimental Example 1, and the results thereof are illustrated in FIGS. 11 and 12.

ceramide EOP
increased: amount of aquaporin 3 [1] | amount of filaggrin [2] | amount of ceramide [3]
